Test results from patent US10800792B2, “Inhibitors of Bruton's tyrosine kinase and method of their use” (JANSSEN PHARMACEUTICA NV, priority 2015, dated 2020).

Target: unphosphorylated-BTK kinase domain (UP-BTK), GST-tagged human BTK (389-659aa) (Homo sapiens (Human), UniProt Q06187)
Experiment: BTK kinase Lanthascreen binding assay
Details: Lanthascreen tracer competition, 60 minutes incubation, pIC50 = negative log of the IC50 in molar; for IC50: read-out: BTK_I_binding pIC50 (converted)
How it was run: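 Compound binding to the unphosphorylated kinase domain was monitored by displacement of a fluorescently labelled tracer in a Lanthascreen format. Potency is given as pIC50, the negative log of the molar IC50.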

Chain of unphosphorylated-BTK kinase domain (UP-BTK), GST-tagged human BTK (389-659aa) (Q06187 389-659): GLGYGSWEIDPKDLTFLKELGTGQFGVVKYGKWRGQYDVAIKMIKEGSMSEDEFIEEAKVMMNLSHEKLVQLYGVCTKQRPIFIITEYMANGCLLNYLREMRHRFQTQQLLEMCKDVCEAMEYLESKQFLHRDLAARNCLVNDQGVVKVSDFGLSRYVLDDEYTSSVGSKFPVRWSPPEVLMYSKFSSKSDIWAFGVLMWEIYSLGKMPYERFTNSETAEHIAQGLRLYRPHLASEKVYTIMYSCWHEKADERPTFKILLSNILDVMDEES

| Compound | BTK_I_binding pIC50 | IC50 |
| --- | --- | --- |
| C=CC(=O)N1CCC[C@@H](NC(=O)c2sc3nccc4c3c2NC(=O)N4c2ccc(Oc3ccccn3)cc2C)C1 [Example 778, (R)—N-(1-Acryloylpiperidin-3-yl)-5-(2-methyl-4-(pyridin-2-yloxy)phenyl)-4-oxo-4,5-dihydro-3H-1-thia-3,5,8-triazaacenaphthylene-2-carboxamide] | 8.0 | – |
| O=C(CCCC(=O)NCCCOCCOCCOCCCNC(=O)CCCC[C@H]1SC[C@H]2NC(=O)N[C@H]21)NC/C=C/C(=O)N1CCCC(NC(=O)c2sc3nccc4c3c2NC(=O)N4c2ccc(Oc3ccccc3)cn2)C1 (stereo partly drawn) [Example 780, N^1-(15-Oxo-19-((3aR,4R,6aS)-2-oxohexahydro-1H-thieno[3,4-d]imidazol-4-yl)-4,7,10-trioxa-14-azanonadecyl)-N^5-((E)-4-oxo-4-(3-(4-oxo-5-(5-phenoxypyridin-2-yl)-4,5-dihydro-3H-1-thia-3,5,8-triazaacenaphthylene-2-carboxamido)piperidin-1-yl)but-2-en-1-yl)glutaramide] | 6.3 | – |
| C=CC(=O)N1CC[C@@H](NC(=O)c2sc3nccc4c3c2NC(=O)N4c2ccc(Oc3ccccn3)cc2C)C1 [Example 781, (R)—N-(1-Acryloylpyrrolidin-3-yl)-5-(2-methyl-4-(pyridin-2-yloxy)phenyl)-4-oxo-4,5-dihydro-3H-1-thia-3,5,8-triazaacenaphthylene-2-carboxamide] | 7.4 | – |
| C=CC(=O)N1CCC[C@@H](NC(=O)c2sc3nccc4c3c2NC(=O)N4c2ccc(Oc3ccc(C)nc3)cc2C)C1 [Example 783, (R)—N-(1-Acryloylpiperidin-3-yl)-5-(2-methyl-4-((6-methylpyridin-3-yl)oxy)phenyl)-4-oxo-4,5-dihydro-3H-1-thia-3,5,8-triazaacenaphthylene-2-carboxamide] | 7.1 | – |
| C=CC(=O)N1CCC[C@@H](NC(=O)c2sc3nccc4c3c2NC(=O)N4c2ccc(Oc3cccnn3)cc2C)C1 [Example 784, (R)—N-(1-Acryloylpiperidin-3-yl)-5-(2-methyl-4-(pyridazin-3-yloxy)phenyl)-4-oxo-4,5-dihydro-3H-1-thia-3,5,8-triazaacenaphthylene-2-carboxamide] | 7.4 | – |
| C=CC(=O)N1CCC[C@@H](NC(=O)c2sc3nccc4c3c2NC(=O)N4c2ccc(O[C@H]3CCOC3)cc2C)C1 [Example 785, N—((R)-1-Acryloylpiperidin-3-yl)-5-(2-methyl-4-(((S)-tetrahydrofuran-3-yl)oxy)phenyl)-4-oxo-4,5-dihydro-3H-1-thia-3,5,8-triazaacenaphthylene-2-carboxamide] | 7.1 | – |
| C=CC(=O)N1CCC[C@@H](NC(=O)c2sc3nccc4c3c2NC(=O)N4c2ccc(Oc3ccc(C)cn3)cc2)C1 [Example 786, (R)—N-(1-Acryloylpiperidin-3-yl)-5-(4-((5-methylpyridin-2-yl)oxy)phenyl)-4-oxo-4,5-dihydro-3H-1-thia-3,5,8-triazaacenaphthylene-2-carboxamide] | 6.9 | – |
| C=CC(=O)N1CCC[C@@H](NC(=O)c2sc3nccc4c3c2NC(=O)N4c2ccc(O[C@@H]3CCOC3)cc2C)C1 [Example 787, N—((R)-1-Acryloylpiperidin-3-yl)-5-(2-methyl-4-(((R)-tetrahydrofuran-3-yl)oxy)phenyl)-4-oxo-4,5-dihydro-3H-1-thia-3,5,8-triazaacenaphthylene-2-carboxamide] | 6.6 | – |
| C=CC(=O)N1CCCC(C(=O)Nc2sc3nccc4c3c2NC(=O)N4c2ccc(Oc3ccccc3)cc2C)C1 (centres unmarked) [Example 788, 1-Acryloyl-N-(5-(2-methyl-4-phenoxyphenyl)-4-oxo-4,5-dihydro-3H-1-thia-3,5,8-triazaacenaphthylen-2-yl)piperidine-3-carboxamide] | – | 200 nM |
| C=CC(=O)N1CC[C@@H](NC(=O)c2sc3nccc4c3c2NC(=O)N4c2ccc(Oc3cccnn3)cc2C)C1 [Example 790, (R)—N-(1-Acryloylpyrrolidin-3-yl)-5-(2-methyl-4-(pyridazin-3-yloxy)phenyl)-4-oxo-4,5-dihydro-3H-1-thia-3,5,8-triazaacenaphthylene-2-carboxamide] | 6.7 | – |
| C=CC(=O)N1CCC[C@@H](NC(=O)c2sc3nccc4c3c2NC(=O)N4c2ccc(Oc3cccnn3)cc2)C1 [Example 791, (R)—N-(1-Acryloylpiperidin-3-yl)-4-oxo-5-(4-(pyridazin-3-yloxy)phenyl)-4,5-dihydro-3H-1-thia-3,5,8-triazaacenaphthylene-2-carboxamide] | 6.6 | – |

More lines, now with the values ahead:

| BTK_I_binding pIC50 | IC50 | Compound |
| --- | --- | --- |
| 6.4 | – | C=CC(=O)N1CCC[C@H](NC(=O)c2sc3nccc4c3c2NC(=O)N4c2ccc(Oc3ccccc3)cn2)C1 [Example 795, (S)—N-(1-Acryloylpiperidin-3-yl)-4-oxo-5-(5-phenoxypyridin-2-yl)-4,5-dihydro-3H-1-thia-3,5,8-triazaacenaphthylene-2-carboxamide] |
| 6.3 | – | C=CC(=O)N1CCN(c2sc3nccc4c3c2NC(=O)N4c2ccc(Oc3ccccc3)cc2C)CC1 [Example 796, 2-(4-Acryloylpiperazin-1-yl)-5-(2-methyl-4-phenoxyphenyl)-3H-1-thia-3,5,8-triazaacenaphthylen-4(5H)-one] |
| 6.2 | – | CCC(=O)N1CCC[C@@H](NC(=O)c2sc3nccc4c3c2NC(=O)N4c2ccc(Oc3ccccn3)cc2C)C1 [Example 799, (R)-5-(2-Methyl-4-(pyridin-2-yloxy)phenyl)-4-oxo-N-(1-propionylpiperidin-3-yl)-4,5-dihydro-3H-1-thia-3,5,8-triazaacenaphthylene-2-carboxamide] |
| 6.2 | – | CC(=O)N1CCC[C@@H](NC(=O)c2sc3nccc4c3c2NC(=O)N4c2ccc(Oc3ccccn3)cc2C)C1 [Example 800, (R)—N-(1-Acetylpiperidin-3-yl)-5-(2-methyl-4-(pyridin-2-yloxy)phenyl)-4-oxo-4,5-dihydro-3H-1-thia-3,5,8-triazaacenaphthylene-2-carboxamide] |
| 6.2 | – | Cc1cc(Oc2ccccc2)ccc1N1C(=O)Nc2c(NC(=O)C3CCCN(C(=O)/C(C#N)=C/C4CC4)C3)sc3nccc1c23 (centres unmarked) [Example 801, (E)-1-(2-Cyano-3-cyclopropylacryloyl)-N-(5-(2-methyl-4-phenoxyphenyl)-4-oxo-4,5-dihydro-3H-1-thia-3,5,8-triazaacenaphthylen-2-yl)piperidine-3-carboxamide] |
| 6.1 | – | Cc1cc(Oc2ccccc2)ccc1N1C(=O)Nc2c(NC(=O)C3CCCN(C#N)C3)sc3nccc1c23 (centres unmarked) [Example 802, 1-Cyano-N-(5-(2-methyl-4-phenoxyphenyl)-4-oxo-4,5-dihydro-3H-1-thia-3,5,8-triazaacenaphthylen-2-yl)piperidine-3-carboxamide] |
| 6.1 | – | C=CC(=O)N1CC[C@@H](NC(=O)c2sc3nccc4c3c2NC(=O)N4c2ccc(Oc3cccnn3)cc2)C1 [Example 803, (R)—N-(1-Acryloylpyrrolidin-3-yl)-4-oxo-5-(4-(pyridazin-3-yloxy)phenyl)-4,5-dihydro-3H-1-thia-3,5,8-triazaacenaphthylene-2-carboxamide] |
| 6.0 | – | CCC(=O)N1CCC(C(=O)Nc2sc3nccc4c3c2NC(=O)N4c2ccc(Oc3ccccc3)cc2C)CC1 [Example 805, N-(5-(2-Methyl-4-phenoxyphenyl)-4-oxo-4,5-dihydro-3H-1-thia-3,5,8-triazaacenaphthylen-2-yl)-1-propionylpiperidine-4-carboxamide] |
| <6 | – | CCC(=O)N1CCC[C@@H](NC(=O)c2sc3nccc4c3c2NC(=O)N4c2ccc(Oc3ccccn3)cc2)C1 [Example 807, (R)-4-Oxo-N-(1-propionylpiperidin-3-yl)-5-(4-(pyridin-2-yloxy)phenyl)-4,5-dihydro-3H-1-thia-3,5,8-triazaacenaphthylene-2-carboxamide] |
| <6 | – | CC(=O)N1CCC[C@@H](NC(=O)c2sc3nccc4c3c2NC(=O)N4c2ccc(Oc3ccccn3)cc2)C1 [Example 808, (R)—N-(1-Acetylpiperidin-3-yl)-4-oxo-5-(4-(pyridin-2-yloxy)phenyl)-4,5-dihydro-3H-1-thia-3,5,8-triazaacenaphthylene-2-carboxamide] |
| <6 | – | CCC(=O)N1CCC[C@@H](NC(=O)c2sc3nccc4c3c2NC(=O)N4c2ccc(Oc3cccnn3)cc2C)C1 [Example 809, (R)-5-(2-Methyl-4-(pyridazin-3-yloxy)phenyl)-4-oxo-N-(1-propionylpiperidin-3-yl)-4,5-dihydro-3H-1-thia-3,5,8-triazaacenaphthylene-2-carboxamide] |
| <6 | – | CC(=O)N1CCC[C@@H](NC(=O)c2sc3nccc4c3c2NC(=O)N4c2ccc(Oc3cccnn3)cc2C)C1 [Example 810, (R)—N-(1-Acetylpiperidin-3-yl)-5-(2-methyl-4-(pyridazin-3-yloxy)phenyl)-4-oxo-4,5-dihydro-3H-1-thia-3,5,8-triazaacenaphthylene-2-carboxamide] |
| <6 | – | CC(=O)N1CCC[C@@H](NC(=O)c2sc3nccc4c3c2NC(=O)N4c2ccc(Oc3cccnn3)cc2)C1 [Example 812, (R)—N-(1-Acetylpiperidin-3-yl)-4-oxo-5-(4-(pyridazin-3-yloxy)phenyl)-4,5-dihydro-3H-1-thia-3,5,8-triazaacenaphthylene-2-carboxamide] |
| – | 1000 nM | Cc1cc(Oc2ccccc2)ccc1N1C(=O)Nc2c(NC(=O)C3CCCN(C(=O)/C(C#N)=C/C(C)(C)C)C3)sc3nccc1c23 (centres unmarked) [Example 816, (E)-1-(2-Cyano-4,4-dimethylpent-2-enoyl)-N-(5-(2-methyl-4-phenoxyphenyl)-4-oxo-4,5-dihydro-3H-1-thia-3,5,8-triazaacenaphthylen-2-yl)piperidine-3-carboxamide] |
| 6.0 | – | Cc1cc(Oc2ccccc2)ccc1N1C(=O)Nc2c(NC(=O)C3CCCN(C(=O)CC#N)C3)sc3nccc1c23 (centres unmarked) [Example 817, 1-(2-Cyanoacetyl)-N-(5-(2-methyl-4-phenoxyphenyl)-4-oxo-4,5-dihydro-3H-1-thia-3,5,8-triazaacenaphthylen-2-yl)piperidine-3-carboxamide] |
